Measured values taken from article PMC11790914, “Chemogenomics for steroid hormone receptors (NR3)” (Communications Chemistry, 2025).

Experiments:
[1] = test system: NR3B3 (ERRγ); settings: (lit.); ref Supplementary Table 1; read-out: Potency [nM] EC50, NR3B3 (ERRγ); cited from earlier work
[2] = molecular target: T1, NR1F3 (RORγ) (Homo sapiens, UniProt P51449); test: Gal4 hybrid reporter gene assay RORγ; assay type: cell-based; settings: 3 µM, n=3
T1 construct: expressed in transfected cells; host or cells: HEK293T
Protocol: (§1) Reference ligands are listed in the methods section.
(§2) HEK293T cells (ATCC, Manassas, Virgina, USA; #CRL-3216) were cultured to a maximal confluence of 70–80% in DMEM, high glucose, supplemented with 10% FCS, sodium pyruvate (1 mM), penicillin (100 U/mL), and streptomycin (100 μg/mL) at 37 °C and 5% CO2 (v/v), and seeded in clear 96-well plates (4 × 10^4 cells per well). After 20–24 h, medium was changed to Opti-MEM without supplements and the cells were transiently transfected using Lipofectamine™ LTX/Plus™ Reagents (Invitrogen, Carlsbad, California, USA; #15338100) according to the manufacturer’s protocol with pFR-Luc (reporter gene; Stratagene, Agilent Technologies, Santa Clara, California, USA; #219050), pRL-SV40 (control gene for normalization of transfection efficiency and cell growth; Promega, Fitchburg, Wisconsin, USA; #E2231) and one pFA-CMV-hNR-LBD clone coding for the hinge region and ligand binding domain (LBD) of the human NR of interest. […] Firefly (reporter) and renilla (control) luminescence were measured after 14–16 h incubation using the Dual-Glo® Luciferase Assay System (Promega, Fitchburg, Wisconsin, USA; #E2980) according to manufacturer’s protocol on a Tecan Spark® 10M multimode microplate reader (Tecan Group AG, Männedorf, Switzerland). To obtain relative light units (RLU) firefly luminescence was divided by renilla luminescence and multiplied by 1000. […]

[3] = molecular target: T2, NR1C3 (PPARγ) (Homo sapiens, UniProt P37231); test: Gal4 hybrid reporter gene assay PPARγ; assay type: cell-based; settings: n=3
T2 construct: expressed in transfected cells; host or cells: HEK293T
Protocol: as §1, §2

[4] = molecular target: T3, NR4A1 (Nur77) (Homo sapiens, UniProt P22736); test: Gal4 hybrid reporter gene assay Nur77; assay type: cell-based; settings: 10 µM, n=3
T3 construct: expressed in transfected cells; host or cells: HEK293T
Protocol: as §1, §2

[5] = molecular target: T4, NR1B1 (RARα) (Homo sapiens, UniProt P10276); test: Gal4 hybrid reporter gene assay RARα; assay type: cell-based; design: Activity on NR targets outside NR3 family [mean log10(fold reporter gene activity)] NR1B1 (RARα): concentration or dose not given beside the values
T4 construct: expressed in transfected cells; host or cells: HEK293T
Protocol: as §1
Five hours after transfection, the cells were incubated with the NR3 CG compound candidates at the recommended concentrations by changing the medium to Opti-MEM supplemented with penicillin (100 µ/mL) and streptomycin (100 µg/mL) additionally containing 0.1% DMSO and the respective test compound or 0.1% DMSO alone as untreated control. Firefly (reporter) and renilla (control) luminescence were measured after 14–16 h incubation using the Dual-Glo® Luciferase Assay System (Promega, Fitchburg, Wisconsin, USA; #E2980) according to manufacturer’s protocol on a Tecan Spark® 10M multimode microplate reader (Tecan Group AG, Männedorf, Switzerland). To obtain relative light units (RLU) firefly luminescence was divided by renilla luminescence and multiplied by 1000. Fold activation was obtained by dividing the mean RLU of a test sample by the mean RLU of the DMSO (0.1%) control. Experiments were performed in singlets in at least three biologically independent repeats.
Supplementary Figure 1. […] Compounds are labeled according
Supplementary Figure 2. […] Compounds are
representing the NR1, NR2, NR4 and NR5 families.
scanning fluorimetry (DSF).
a concentration of 20 µM.

[6] = test system: NR3C2 (MR); settings: rem. act.; cited from earlier work
[7] = molecular target: T5, NR1I2 (PXR) (Homo sapiens, UniProt O75469); test: Gal4 hybrid reporter gene assay PXR; assay type: cell-based; settings: 1 µM, n=3
T5 construct: expressed in transfected cells; host or cells: HEK293T
Protocol: as §1, §2

[8] = test system: NR5A2 (LRH1); test: Gal4 hybrid reporter gene assay LRH1; assay type: cell-based, human; settings: 1 µM; n=3; vs. DMSO ctrl
Protocol: as §1, §2

T1 sequence (P51449 269-508 limits assumed): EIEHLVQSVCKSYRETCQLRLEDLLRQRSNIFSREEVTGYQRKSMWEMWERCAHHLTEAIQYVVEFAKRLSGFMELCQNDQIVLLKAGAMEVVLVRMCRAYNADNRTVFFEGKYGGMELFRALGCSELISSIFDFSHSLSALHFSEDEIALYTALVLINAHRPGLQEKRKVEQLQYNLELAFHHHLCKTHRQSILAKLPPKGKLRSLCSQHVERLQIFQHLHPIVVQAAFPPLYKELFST
T2 sequence (P37231 238-503 limits assumed): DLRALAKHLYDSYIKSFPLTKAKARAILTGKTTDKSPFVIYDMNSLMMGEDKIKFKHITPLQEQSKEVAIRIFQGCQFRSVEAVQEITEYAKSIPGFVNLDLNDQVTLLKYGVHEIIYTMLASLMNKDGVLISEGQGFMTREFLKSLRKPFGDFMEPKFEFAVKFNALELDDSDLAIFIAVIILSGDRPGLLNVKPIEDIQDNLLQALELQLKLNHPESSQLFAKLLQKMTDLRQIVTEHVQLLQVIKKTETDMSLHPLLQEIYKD
T4 sequence (P10276 183-417 limits assumed): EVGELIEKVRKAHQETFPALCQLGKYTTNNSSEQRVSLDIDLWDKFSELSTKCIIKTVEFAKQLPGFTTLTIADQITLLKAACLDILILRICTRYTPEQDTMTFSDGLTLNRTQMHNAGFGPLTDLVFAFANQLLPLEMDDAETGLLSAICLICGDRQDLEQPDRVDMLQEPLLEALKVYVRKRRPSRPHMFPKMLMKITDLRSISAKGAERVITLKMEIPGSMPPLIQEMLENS
T5 sequence (O75469 146-433 limits assumed): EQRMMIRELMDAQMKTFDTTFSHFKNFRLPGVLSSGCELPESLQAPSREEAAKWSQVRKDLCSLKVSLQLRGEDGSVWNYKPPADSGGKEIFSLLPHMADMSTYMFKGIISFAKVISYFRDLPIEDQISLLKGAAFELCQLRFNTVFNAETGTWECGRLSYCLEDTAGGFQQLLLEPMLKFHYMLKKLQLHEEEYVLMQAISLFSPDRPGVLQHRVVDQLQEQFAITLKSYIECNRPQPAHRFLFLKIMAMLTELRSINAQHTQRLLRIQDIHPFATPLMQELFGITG
T3 sequence (P22736 360-595 limits assumed): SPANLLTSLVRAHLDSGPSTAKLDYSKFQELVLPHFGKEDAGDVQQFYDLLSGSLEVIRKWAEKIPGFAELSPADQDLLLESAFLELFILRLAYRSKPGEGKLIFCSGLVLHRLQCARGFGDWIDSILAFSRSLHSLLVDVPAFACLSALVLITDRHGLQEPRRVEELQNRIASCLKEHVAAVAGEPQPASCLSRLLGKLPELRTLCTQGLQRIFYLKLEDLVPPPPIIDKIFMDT

CCN(CC)c1ccc(/C=N/NC(=O)c2ccc(O)cc2)cc1 [DY131]
EC50 [1]: 130 nM
Activity on NR targets outside NR3 family [mean log10(fold reporter gene activity)] NR1F3 (RORγ) ([2]; vs. DMSO ctrl): 0.21 log10(fold reporter gene activity)

COc1ccc(-c2coc3cc(O)cc(O)c3c2=O)cc1 [Biochanin A]
Activity on NR1C3 (PPARγ) ([3]; 10 µM): -0.56 mean log10(fold reporter gene activity)
Activity on NR4A1 (Nurr77) [4]: 0.34 mean log10(fold reporter gene activity)

C[C@@H]1Cc2c([nH]c3ccccc23)[C@@H](c2c(F)cc(/C=C/C(=O)O)cc2F)N1CC(C)(C)F [AZD9496]
Activity on NR targets outside NR3 family [mean log10(fold reporter gene activity)] NR1B1 (RARα) [5]: -0.43 log10(fold reporter gene activity)

CC#C[C@]1(O)CC[C@H]2[C@@H]3CCC4=CC(=O)CCC4=C3[C@@H](c3ccc(N(C)C)cc3)C[C@@]21C [Mifepristone]
rel. activity from literature, NR3C2 (MR): % rem. act. [6]: 4%

CC/C(=C(/c1ccc(/C=C/C(=O)O)cc1)c1ccc2[nH]ncc2c1)c1ccc(F)cc1Cl [ARN810]
Activity on NR1I2 (PXR) [7]: -0.68 mean log10(fold reporter gene activity)
Activity on NR1B1 (RARα) ([5]; 1 µM, n=3): -0.97 mean log10(fold reporter gene activity)

COc1cc(/C=C(\C#N)C(=O)Nc2nnc(C(F)(F)F)s2)ccc1OCc1ccc(C(F)(F)F)cc1C(F)(F)F [XCT790]
Activity on NR targets outside NR3 family [mean log10(fold reporter gene activity)] NR1C3 (PPARγ) ([3]; 1 µM, vs. DMSO ctrl): 0.75 log10(fold reporter gene activity)
Activity on NR targets outside NR3 family [mean log10(fold reporter gene activity)] NR5A2 (LRH1) [8]: 0.20 log10(fold reporter gene activity)

CCCC1O[C@@H]2C[C@H]3[C@@H]4CCC5=CC(=O)C=C[C@]5(C)[C@H]4[C@@H](O)C[C@]3(C)[C@]2(C(=O)CO)O1 (some centres unmarked) [Budesonide]
Activity on NR1F3 (RORγ) [2]: -0.30 mean log10(fold reporter gene activity)
